# Results published in the METLIN SMRT retention time set (Domingo-Almenara et al. 2019).
# Test: gradient 5% acetonitrile 3 min, to 50% in 2 min, to 85% in 15 min, held 3 min, 100 µL/min
# Conditions: column: Zorbax Extend-C18 2.1 x 50 mm; eluents: water / acetonitrile, 0.1% formic acid
# How it was run: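 Values are retention times taken from adduct peaks that software picked and an analyst inspected. The pure standards were run as mixtures of ~100 molecules on HPLC linked to a quadrupole time-of-flight mass spectrometer, in positive and negative ionization mode. A Zorbax Extend-C18 column (2.1 × 50 mm, 1.8 μm) was used at 100 μL/min with water and acetonitrile, each including 0.1% formic acid.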
row,RP-LC retention time [s],SMILES
1,882,Cc1cc(-c2nnc(-c3ccco3)o2)c(C)n1CC(=O)NCc1ccc(F)c(Cl)c1
2,933,O=C(NCc1ccc(F)cc1Cl)C1=C2CCCN2c2ccc(F)cc2S1(=O)=O
3,811,CC1=C(c2ccccc2)S(=O)(=O)N=C1N1CCCN(C(=O)c2ccccc2Cl)CC1
4,1010,CN1C(=O)COc2ccc(-c3csc(NC(=O)c4ccc(Cl)cc4)n3)cc21
5,607,Cn1nnnc1SCC(=O)Nc1nc2c(s1)C(=O)CCC2
6,1150,CCCN1C(=O)COc2ccc(-c3csc(NC(=O)c4cccc(Cl)c4)n3)cc21
7,633,CS(=O)(=O)N1CCCC(C(=O)NC2CCCCC2)CCNC(=O)CC1 (configuration not stated)
8,652,Cc1ccc(Nc2ccc(N)cc2S(=O)(=O)O)cc1
9,698,CCc1ccccc1NC(=O)C1CC(=O)N(c2ccc3c(c2)CCN3C(C)=O)C1 (configuration not stated)
10,806,Cc1ccc(CNC(=O)C2CCCN(C(=O)Cc3cccc4ccccc34)C2)o1 (configuration not stated)
11,1010,Cc1ccc2c(c1)N(C(=O)Cn1c(=O)cc(C(=O)N3CCCCC3)c3ccccc31)CCO2
12,650,Cc1nnc(SCC(=O)NCCc2ccccc2)s1
13,746,COc1ccc(-c2ccc3nc(N4CCC(C(=O)NC5CC5)CC4)sc3n2)cc1
14,568,CCc1ccc2nc(C)cc(C(=O)NC)c2c1
15,922,CCOc1ccc(-c2nc(Cn3nnc(C(=O)NCc4ccc(OC)cc4)c3N)c(C)o2)cc1OC
16,888,COc1cc2ccccc2cc1C(=O)Nc1nccs1
17,795,CCc1ccc(CNC(=O)CC2CCN(C(=O)c3[nH]c(C)c(C(=O)OC)c3C)CC2)cc1
18,777,CNC(=O)c1cnn(-c2cccc(F)c2)c1-n1cccc1
19,1030,CCOC(=O)C1CCN(c2ncc(S(=O)(=O)c3ccc(CC)cc3)c(N)n2)CC1
20,648,CCC1CCCCN1C(=O)c1cnc2nc(C)ccc2c1Nc1ccc(OC)c(OC)c1 (configuration not stated)
21,643,Cc1cc2nn(CC(=O)N3CCCC3)c(=O)n2c(Nc2ccc(F)c(C)c2)n1
22,1220,Cc1ccccc1-c1nc(-c2cccc(-c3ccnn3C)c2)no1

row,RP-LC retention time [s],SMILES
1,716,CCn1cc(CC(=O)NCc2ccc(OC)cc2)c2cccnc21
2,1200,CCn1c(=O)oc2cc(-c3noc(-c4ccc(C)c(F)c4)n3)ccc21
3,1090,Oc1ccccc1-c1nc2ccc(Cl)cn2c1Nc1ccc(Cl)cc1
4,868,O=C(C1=CN(c2cccc(Cl)c2)c2cc(F)ccc2S1(=O)=O)N1CCCC1
5,857,COC(=O)c1cc(OCC(=O)Nc2ccccc2F)c2cc(F)ccc2n1
6,842,CCNC(=O)c1nc(C(=O)NCCc2ccc(Cl)cc2)cs1
7,813,Cn1ncc(Cl)c1C(=O)N1CCCC1c1cccc(F)c1 (configuration not stated)
8,888,Cc1ccc(-n2ccc(=O)c(-c3nc(-c4ccccc4)no3)n2)cc1
9,882,CCOc1ccc(-c2cc(C(F)(F)F)nn2-c2nc(-c3ccc(F)cc3)cs2)cc1
10,611,O=C(COc1ccccc1F)NC1CC(=O)N(C2CC2)C1 (configuration not stated)
11,1240,COC(=O)c1cnc(N2CCN(c3ccccc3F)CC2)c2ccccc12
12,901,Cc1cccc(N2CCN(C(=O)c3cn(-c4ccc(NC(=O)C5CC5)cn4)cn3)CC2)c1C
13,715,O=C(NC1CCN(c2cc(-c3cccs3)[nH]n2)C1)c1cccc(F)c1 (configuration not stated)
14,850,COC(=O)C1=CN(CC(=O)NCc2ccc(Cl)cc2)S(=O)(=O)N=C1C
15,595,COc1cccc2c(Nc3ccc(S(N)(=O)=O)cc3)cc(C(=O)N3CCSCC3)nc12
16,1120,COc1ccc(-c2noc(Cn3cnc4c(cnn4-c4ccc(Cl)cc4)c3=O)n2)cc1
17,1200,COC1CN(c2cccc(F)c2)C12CCN(S(=O)(=O)c1cccc(F)c1)CC2 (configuration not stated)
18,577,OCC1CN(c2ncccn2)CC12CCN(Cc1ccc3[nH]ccc3c1)CC2 (configuration not stated)
19,898,Cc1ccc(Nc2nc3ccncc3n(Cc3ccccc3)c2=O)cc1Cl
20,938,Cc1cnn(Cc2nc(-c3ccc(NC(=O)c4sccc4C)cc3)oc2C)c1
21,800,CC(NC(=O)c1cc2n(n1)CC(C)(C(=O)NC1CCCCC1)N(C)C2=O)c1ccccc1 (configuration not stated)
22,824,Cc1nc(-c2noc(-c3ccc(F)cc3)n2)cn1CC(=O)NCc1ccccc1F

row,RP-LC retention time [s],SMILES
1,1020,CC(C)c1noc(-c2ccnc(-n3cnc(C(=O)NC4CCCCC4)c3)c2)n1
2,910,COc1ccc(/C=C/c2nn3c(CCc4ccccc4)nnc3s2)cc1
3,631,Cc1ccc(NC(=O)NCc2ccnc(N3CCSCC3)c2)c(C)c1
4,674,CC1CCCCN1S(=O)(=O)c1ccc2nc(N3CCN(c4ccccn4)CC3)ccc2c1 (configuration not stated)
5,733,O=C(Cn1nc2c3ccccc3ncn2c1=O)Nc1cccc(C(F)(F)F)c1
6,613,COCCCNC(=O)C1CCN(c2ncnc3c2oc2ccccc23)CC1
7,951,CC(C)S(=O)(=O)c1cc2c(cc1NC(=O)c1ccc(Br)cc1)n(C)c(=O)n2C
8,937,O=C(COc1ccc(F)cc1)N1CCN(C(=O)c2nnn3c2COC(c2ccc(Cl)cc2)C3)CC1 (configuration not stated)
9,769,O=C(CC(=O)c1ccccc1)Nc1ccc2c(c1)OCCO2
10,819,O=C(C1=CN(c2cccc(Br)c2)c2ccccc2S1(=O)=O)N1CCCC1
11,764,O=C(NCCc1ccccc1)NCCc1ccsc1
12,820,Cc1nc(OCC(=O)Nc2ccc(Br)cc2F)c2ccccc2n1
13,865,CC1CCN(S(=O)(=O)c2ccc(-c3nnc(C(=O)NCC4CCCO4)o3)cc2)CC1 (configuration not stated)
14,813,CCOc1ccccc1CNC(=O)C1CCCN(c2ncnc3c2oc2ccccc23)C1 (configuration not stated)
15,716,O=C(Nc1ccccc1)N1CCN(Cc2nc3cc(Cl)ccc3o2)CC1
16,834,Cc1cccc(OCC(=O)Nc2cccn3nc(C)nc23)c1
17,734,CCOC(=O)c1ccc(NS(=O)(=O)c2c[nH]c3ncccc23)cc1
18,750,COc1cc(OC)c(C(=O)CCCCN2CCC3(CC2)NC(=O)NC3=O)cc1NS(=O)(=O)c1ccc(C(F)(F)F)cc1
19,668,COC(=O)c1ccc2c(=O)n(-c3cc(OC)cc(OC)c3)c(N3CCN(C(C)C)CC3)nc2c1
20,617,Cc1ccc(-c2cc3n(n2)CCCN(C(=O)c2cc(CN4CCOCC4)on2)C3)o1
21,736,O=C(O)C1(c2cc(-c3ccccc3)on2)CC1

row,SMILES,RP-LC retention time [s]
1,Cc1c(C(=O)O)nnn1Cc1cccc(C(F)(F)F)c1,744
2,CCN(CC)C(=O)N[C@@H]1C[C@@H]2c3cccc4[nH]cc(c34)C[C@H]2N(C)C1,684
